# Test results reported in patent US9878999B2, “Proteasome chymotrypsin-like inhibition using PI-1833 analogs” (H. Lee Moffitt Cancer Center and Research Institute, Inc., priority 2011, dated 2018).
# “And” between values parts separate entries of the source, which are not always exact repeats. Equal values may be shown once. “Also recorded” adds a separate entry of the source. Read-outs that look alike come from different tables or passages of the source.
# What was measured:
# [1] = tested on: MDA-MB-468; assay: MTT assay, proliferation and viability; format: cell-based; conditions: Homo sapiens, MDA-MB-468, WT K-Ras
# [2] = molecular target: T1, T-L activity in MDA-MB-468 cells (Homo sapiens, UniProt Q99436); assay: T-L activity in MDA-MB-468 cells; format: cell-based; conditions: MDA-MB-468, within 10 min
# T1 construct: endogenous in cells; host or cells: MDA-MB-468
# [3] = molecular target: T2, PGPH activity in MDA-MB-468 cells (Homo sapiens, UniProt P28072); assay: PGPH activity in MDA-MB-468 cells; format: cell-based; conditions: MDA-MB-468, within 10 min
# T2 construct: endogenous in cells; host or cells: MDA-MB-468
# [4] = molecular target: T3, CT-L activity in human breast cancer MDA-MB-468 cells (Homo sapiens, UniProt P20618+P28074); assay: whole cell CT-L activity in MDA-MB-468 cells; format: cell-based
# T3 construct: endogenous in cells; host or cells: MDA-MB-468
# [5] = tested on: proteasome substrates p27, Bax and IKB; assay: Western blot, accumulation of proteasome substrates; format: cell-based
# [6] = tested on: LNCaP; assay: MTT assay, proliferation and viability; format: cell-based; conditions: Homo sapiens, Bax^+/+
# [7] = molecular target: CT-L activity of purified 20S proteasome (Homo sapiens, UniProt P20618+P28074); assay: in vitro CT-L activity of purified 20S proteasome; format: biochemical; conditions: for inhibition at 10 µM / Screening Results (% Inhibition @ 10 μM) Chymotrypsin-like: Table 5, @ 10 μM; for inhibition at 10 µM: read-out: Screening Results (% Inhibition @ 10 μM) Chymotrypsin-like
# [8] = tested on: HCT-116; assay: MTT assay, proliferation and viability; format: cell-based; conditions: Homo sapiens, HCT-116, mut K-Ras
# [9] = tested on: HCT-116-p53^−/−; assay: MTT assay, proliferation and viability; format: cell-based
# [10] = tested on: DU-145; assay: MTT assay, proliferation and viability; format: cell-based; conditions: Homo sapiens, DU-145, Bax^−/−
# [11] = tested on: PC3; assay: MTT assay, proliferation and viability; format: cell-based; conditions: Homo sapiens, PC-3
# [12] = tested on: MDA-MB-468 and HCT-116 cells; assay: Western blot for cleaved caspase-3 and cleaved PARP (apoptosis); format: cell-based, human; conditions: 48 h or 24 h
# Procedure: FIG. 17 is a blot showing the apoptotic potential of PI-1833 and PI-1840. Exponentially growing human breast cancer cells MDA-MB-468 and colon cancer cells HCT-116 were treated with different concentrations of PI-1833 or PI-1840 for 48 h or 24 h, followed by WB analysis for cleaved caspase-3 and cleaved PARP.
# [13] = tested on: RX7-397; assay: MTT assay, proliferation and viability; format: cell-based; conditions: RX7-397, 96 h
# [14] = tested on: HCT-116-HKH2; assay: MTT assay, proliferation and viability; format: cell-based; conditions: HCT-116-HKH2, K-Ras^−/−
# [15] = tested on: MDA-MB-231; assay: MTT assay, proliferation and viability; format: cell-based; conditions: Homo sapiens, MDA-MB-231, mut K-Ras
# [16] = tested on: RPMI-8226; assay: MTT assay, proliferation and viability; format: cell-based; conditions: Homo sapiens
# [17] = tested on: Colo357; assay: MTT assay, proliferation and viability; format: cell-based; conditions: Homo sapiens, COLO357, 96 h
# [18] = tested on: MCF-10A; assay: MTT assay, proliferation and viability; format: cell-based; conditions: Homo sapiens, normal/immortalized, 72 h
# [19] = 72 h, read-out: 72 h (MTT assay)
# [20] = 96 h, read-out: 96 h (MTT assay)
# [21] = WT p53, 72 h, read-out: 72 h (MTT assay)
# [22] = WT p53, 96 h, read-out: 96 h (MTT assay)
# [23] = Table 1, read-out: IC50 (μM) Chymotrypsin-like activity
# [24] = Table 5, read-out: IC50 (μM) Chymotrypsin-like
smiles,measurement,setting,value
CCCc1ccc(OCC(=O)N(Cc2nc(-c3cccnc3)no2)C(C)C)cc1 [11ad],IC50,"[1]; mut p53, 72 h, read-out: 72 h (MTT assay)",25.4 ± 5.83 µM
same,IC50,"[1]; mut p53, 96 h, read-out: 96 h (MTT assay)",11.6 µM
same,"inhibition of T-L activity in cells, in words",[2],not T-L or PGPH
same,"inhibition of PGPH activity in cells, in words",[3],not T-L or PGPH
same,"inhibition of CT-L activity in cells, in words","[4]; MDA-MB-468, listed as PI-1840",inhibits CT-L; also recorded: more potent at inhibiting CT-L activity in human breast cancer
same,"accumulation of proteasome substrates p27, Bax and IKB, in words",[5],"more potent at accumulating the proteasome substrates p27, Bax and IKB"
same,IC50,[6]; [19],49 ± 6.81 µM
same,IC50,[6]; [20],17.2 µM
same,fold improved CT-L activity,[7]; compared to the hit 1 (PI-1833),20 fold
same,IC50,"[7]; read-out: IC50, in vitro CT-L",0.032 µM
same,IC50,[8]; [21],40.9 ± 15.8 µM
same,IC50,[8]; [22],35.3 µM
same,IC50,[9]; [19],45.9 ± 19.9 µM
same,IC50,[9]; [20],31.1 µM
same,IC50,[10]; [19],123 ± 25.2 µM
same,IC50,[10]; [20],159 µM
same,IC50,"[11]; PC3, 72 h, read-out: 72 h (MTT assay)",92.7 µM
same,IC50,"[11]; PC3, 96 h, read-out: 96 h (MTT assay)",62.5 µM
same,"induction of apoptosis, in words",[12],efficiently inducing apoptosis
same,IC50,[13],56.9 µM
same,IC50,[14]; [21],43 ± 9.73 µM
same,IC50,[14]; [22],12.8 µM
same,IC50,[15]; [19],133 ± 21.6 µM
same,IC50,[15]; [20],106 µM
same,IC50,"[16]; RPMI-8226, 72 h, read-out: 72 h (MTT assay)",35.9 ± 11.2 µM
same,IC50,"[16]; RPMI-8226, 96 h, read-out: 96 h (MTT assay)",34.7 µM
same,IC50,[17],95.7 µM
same,IC50,[18],63.1 ± 7.06 µM
"CC(C)N(Cc1nc(-c2ccccc2)no1)C(=O)COc1ccc(C(=O)O)cc1 [11t, 4-(2-(Isopropyl((3-phenyl-1,2,4-oxadiazol-5-yl)methyl)amino)-2-oxoethoxy)benzoic acid]",melting point,,211.3 to 213.8 °C
same,IC50,[7]; [23],27.8 ± 20.8 µM
same,IC50,"[7]; read-out: IC50, in vitro CT-L",27 µM
"Cc1ccc(OCC(=O)N(Cc2nc(-c3ccc(C)cc3)no2)C(C)C)cc1 [compound 1, N-Isopropyl-N-((3-p-tolyl-1,2,4-oxadiazol-5-yl)methyl)-2-(p-tolyloxy)acetamide]",IC50,"[4]; MDA-MB-468 breast cancer cells, read-out: whole cell IC50 activity",1.1 µM and 1 µM
same,IC50,[7]; [23],0.63 ± 0.35 µM
same,IC50,"[7]; Table 2, read-out: IC50 (μM) Chymotrypsin-like activity",0.63 ± 0.35 µM
same,IC50,"[7]; Table 7, 20S CT-L proteasome activity, read-out: IC50 (μM) CT-L",0.716 ± 0.27 µM
same,IC50,"[7]; read-out: IC50, in vitro CT-L",0.65 ± 0.39 µM
Cc1ccc(OCC(=O)N(Cc2nc(-c3ccc(C)cc3)no2)C(C)C)cc1 [drawing 107],IC50,"[4]; Table 5, MDA-MB-468, read-out: Whole cell IC50 (μM) Chymotrypsin-like",1.1 µM
same,IC50,[7]; [24],0.63 ± 0.35 µM
Cc1ccc(OCC(=O)N(Cc2nc(-c3ccccn3)no2)C(C)C)cc1 [drawing 138],IC50,[7]; [24],3.75 ± 1.47 µM
Cc1ccc(OCC(=O)N(Cc2nc(-c3ccccc3)no2)C(C)C)cc1 [drawing 139],IC50,[7]; [24],0.22 ± 0.084 µM
CC(C)N(Cc1nc(-c2ccccc2)no1)C(=O)COc1ccc(C(=O)OC(C)(C)C)cc1 [drawing 141],inhibition at 10 µM,[7],-62 ± 26.3%
Cc1ccc(OCC(=O)N(Cc2nc(-c3ccc(C)cc3)no2)C(C)(C)C)cc1 [drawing 142],inhibition at 10 µM,[7],-108 ± 119%
CC(C)N(Cc1nc(-c2ccccc2)no1)C(=O)COc1ccc(C(=O)O)cc1 [drawing 143],Screening Results (% Inhibition @ 10 μM) Chymotrypsin-like,[7],27.76 ± 20.83 (n = 5) %
Cc1ccc(OCC(=O)N(CCc2nc(-c3ccccc3)no2)C(C)C)cc1 [drawing 144],inhibition at 10 µM,[7],31.4 ± 11.2%
CCc1ccc(OCC(=O)N(Cc2nc(-c3cccnc3)no2)C(C)C)cc1 [drawing 145],IC50,[7]; [24],0.099 ± 0.032 µM
CC(C)CC(NC(=O)c1ccc(OCC(=O)N(Cc2nc(-c3ccccc3)no2)C(C)C)cc1)C(=O)O (stereo not shown) [drawing 146],Screening Results (% Inhibition @ 10 μM) Chymotrypsin-like,[7],−174.75 ± 134.18 (n = 5) %
Cc1ccc(OCC(=O)N(Cc2nc(-c3ccncc3)no2)C(C)C)cc1 [drawing 147],inhibition at 10 µM,[7],95.72 ± 0.88%
same,IC50,[7]; [24],0.37 ± 0.046 µM
Cc1ccc(NCC(=O)N(Cc2nc(-c3ccccc3)no2)C(C)C)cc1 [drawing 148],inhibition at 10 µM,[7],81.5 ± 2.77%
same,IC50,[7]; [24],5.67 ± 0.96 µM
Cc1ccc(OCC(=O)N(Cc2nc3ccccc3[nH]2)C(C)C)cc1 [drawing 151],inhibition at 10 µM,[7],80.4 ± 3.04%
same,IC50,[7]; [24],12.5 ± 2.96 µM
CC(C)CC(NC(=O)c1ccc(OCC(=O)N(Cc2nc(-c3ccccc3)no2)C(C)C)cc1)C(=O)O (stereo not shown) [drawing 153],Screening Results (% Inhibition @ 10 μM) Chymotrypsin-like,[7],−149.24 ± 157.49 (n = 5) %
Cc1ccc(OCC(=O)N(Cc2nc(-c3ccccc3)no2)C(C)C)cn1 [drawing 154],inhibition at 10 µM,[7],70.6 ± 5.09%
same,IC50,[7]; [24],4 ± 0.89 µM
CC(C)N(Cc1nc(-c2cccnc2)no1)C(=O)COc1ccc(O)cc1 [drawing 155],inhibition at 10 µM,[7],78.4 ± 6.33%
same,IC50,[7]; [24],0.98 ± 0.5 µM
CC(C)N(Cc1nc(-c2ccccc2)no1)C(=O)COc1ccc(O)cc1 [drawing 156],inhibition at 10 µM,[7],-5.85 ± 23.4%
same,IC50,[7]; [24],10.1 ± 4.52 µM
CCCc1ccc(OCC(=O)N(Cc2nc(-c3cccnc3)no2)C(C)C)cc1 [drawing 157],inhibition at 10 µM,[7],92.3 ± 2.19%
same,IC50,[7]; [24],0.032 ± 0.00015 µM
